Laboratory results taken from patent US20250375453A1, “HIGH-EFFICIENCY ANTIMICROBIAL COMPOSITION” (CM4CURE S.A., priority 2023, published 2025).

Legend:
[1] = test system: Vancomycin-resistant Enterococcus faecalis (VRE, ATCC BAA-2573); experiment: Synergy checkerboard assay / broth micro-dilution MIC (ISO 20776-1 with modifications); assay type: cell-based
Description: • 1. Preparation of the inoculum of Vancomycin-resistant Enterococcus faecalis (VRE, ATCC BAA-2573). Inoculum is prepared by suspension of 1 colony of bacteria (medium size colony from Tryptic Soy agar plate) in 3 ml of Tryptic Soy broth (TSB) using a 200 μL tip. The solution is mixed by vortexing and incubated at 37° C. overnight (19-24 hours) under shaking at 200 rpm. • 2. Preparation of the Antimicrobial dilution on the day of the experiment. Stock solutions are performed with distilled water for all antimicrobial compound except for Fluometacyl (ethanol). Dilution for each condition is made in Mueller-Hinton broth (NMB). 50p of APIs dilution is added to wells of a 96 wells microplate (each condition in duplicate-triplicate). • Antimicrobial compounds were prepared as follows: • Fluometacyl (F) (4 mg/mL in 100% EtOH) served as a master stock. To obtain the final concentration of 40 μg/ml in the bacterial suspension, initial stock of 160 μg/ml in Mueller-Hinton broth (MHB) was prepared and further 2-fold diluted using the following serial dilution scheme: • (1): 40 μg/ml (160 μg/ml, prepared in MHB) • (2): 20 μg/ml (80 μg/ml, dilution in MHB) • (3): 10 μg/ml (40 μg/ml, dilution in MHB) • (4): 5 μg/ml (20 μg/ml, dilution in MHB) • (5): 2.5 μg/ml (10 μg/ml, dilution in MHB) • (6): 1.25 μg/ml (5 μg/ml, dilution in MHB) • Chlorhexidine acetate (CHLX) (2 mg/mL in H2O) served as a master stock. To obtain the final concentration of 4 μg/ml in the bacterial suspension, initial stock of 16 μg/ml in MHB was prepared and further 2-fold diluted using the following serial dilution scheme: • (1): 8 μg/ml (32 μg/ml, prepared in MHB) • (2): 4 μg/ml (16 μg/ml, prepared in MHB) • (3): 2 μg/ml (8 μg/ml, dilution in MHB) • (4): 1 μg/ml (4 μg/ml, dilution in MHB) • (5): 0.5 μg/ml (2 μg/ml, dilution in MHB) • (6): 0.25 μg/ml (1 μg/ml, dilution in MHB) • 3. Preparation of VRE. Before the experiment, the VRE bacterial suspension (incubated overnight) is diluted 100× in TSB in 4 mL of TSB and grown at 37 C under agitation 200 rpm until OD600 reaches 0.08 to 0.16. This corresponds to the cell density […]. 100 μl of the bacterial solution (OD600 ranging from 0.08 to 0.16) is added to 9 900 μL of Mueller-Hinton Broth (MHB) (dilution 1:100). • 4. Preparation of a 96-well plate. 100 μL of bacteria (diluted 1:100 in MHB from the point 3) is added in each well of the plate containing 100 μL of the serially diluted APIs alone or in combinations as shown in the p. 2. Bacteria should be added into the 96-well plate within the 30 minutes following the preparation of the bacteria in order to maintain the same number of CFU/mL. Plates are incubated at 37° C. overnight. A condition with MHB medium alone or bacteria without APIs will also be added as the control conditions. Since fluometacyl is dissolved in ethanol, extra conditions are added: MHB with ethanol in order to assess the effect of ethanol on bacterial growth. • Following scheme is applied: • 2 antibacterial compounds: 50 μL of a antimicrobial 1+50 μL of a antimicrobial 2+100 μL of bacterial suspension in MHB • 1 antibacterial compound: 50 μL of a drug 1/2+50 μL of MHB+100 μL of bacterial suspension in MHB • Growth control: 100 μL MHB (+/−Ethanol)+100 μL of bacterial suspension • BLANK: MHB only • 5. CFU counting of the initial challenge inoculum. 10 μL of the solution of the bacteria used as the positive control is diluted in 10 mL of TSB. 100 μL is spread on Tryptic Soy agar (done in triplicate) and incubated at 37° C. overnight • 6. Results. The MIC is the lowest concentration that inhibits completely the visible growth of the bacteria (no turbidity in a well). The OD at 600 nm is also recorded for each well as back-up data.
Synergy evaluation resulting from the comparison between activity of the combination of the antimicrobial compounds and their individual activities was represented as the Fractional Inhibitory Concentration (FIC) index value. […]

Aspergillus spp. = settings: cited from earlier work

## [H]/N=C(\N/C(=N/[H])NCCCCCCNC(=N)NC(=N)Nc1ccc(Cl)cc1)Nc1ccc(Cl)cc1 [Chlorhexidine, chlorhexidine]
[1]; Enterococcus faecalis, antimicrobial alone, read-out: MIC Monotherapy (X)
  MIC: 4000 µg/mL
[1]; MIC combination / MIC monotherapy
  Ratio Y/X: 0.125-0.5
[1]; in FLC + CHX combination
  MIC combination dual therapy (Y): 500 to 2000 µg/mL
Aspergillus spp.
  MIC of chlorhexdine: 8 to 64 µg/mL
